Data on three compounds can be found in US8927563B2, “Kinase inhibitor” (Respivert Limited, priority 2013, dated 2015).

As a reminder, the pIC50 is −log10 of the IC50, conventionally taken in molar units.

SMILES strings stand for the structures. pIC50: −log10 of the molar value. Read-outs that look alike come from different tables or passages of the source.

The target in one series is CYP2C9 (Homo sapiens (Human), UniProt P11712). Put plainly: CYP2C9 inhibition with and without preincubation. To be noted: for inhibition at 5 μM: human, 5 μM (precipitation at 15 μM), read-out: % Inh, inhibition at 5 μM reported instead. The series is classed as in vitro ADME. How it is done: (§1) Assessment of certain in vitro ADME (absorption, distribution, metabolism, and excretion) parameters for Compound I was conducted by BioFocus (Saffron Walden, UK). The results reveal that Compound I is cleared rapidly by human hepatocytes and that it has a reduced liability for time-dependent cytochrome P450 inhibition.
Chain of CYP2C9 (P11712 whole entry): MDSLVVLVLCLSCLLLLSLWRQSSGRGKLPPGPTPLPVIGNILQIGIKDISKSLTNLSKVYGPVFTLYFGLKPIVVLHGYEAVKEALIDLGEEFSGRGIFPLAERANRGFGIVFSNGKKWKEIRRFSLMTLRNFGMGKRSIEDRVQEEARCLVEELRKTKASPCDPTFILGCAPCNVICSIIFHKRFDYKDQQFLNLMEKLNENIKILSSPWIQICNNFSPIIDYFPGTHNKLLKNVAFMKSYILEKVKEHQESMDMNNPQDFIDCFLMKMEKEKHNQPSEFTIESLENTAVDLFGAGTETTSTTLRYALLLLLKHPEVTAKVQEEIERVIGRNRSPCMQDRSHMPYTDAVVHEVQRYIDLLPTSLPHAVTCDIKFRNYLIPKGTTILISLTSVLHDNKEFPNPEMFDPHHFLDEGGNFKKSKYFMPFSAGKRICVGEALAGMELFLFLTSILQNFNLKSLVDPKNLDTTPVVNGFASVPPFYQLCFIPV

The next series has as its target CYP3A4 (Homo sapiens (Human), UniProt P08684). Put plainly: CYP3A4 inhibition with and without preincubation. Type of series: in vitro ADME. To be noted: for inhibition at 15 µM: human, read-out: 15 μM % Inh. How it is done: as §1
The nature of series [1]: Hydrolytic stability study. The series is classed as physicochemical. The conditions noted are these: DMSO and water (3:1), 1 mg/mL. How it is done: Chemical stability of Compound I was assessed in a mixture of DMSO and water (3:1) at a test compound concentration of 1 mg/mL
Sample Preparation • A 1.0 mg sample of test compound was dissolved in 750 μL of DMSO. Water (250 μL) was added slowly, ensuring no precipitation occurred.
Recording Stability • A 50 μL aliquot of the test solution was removed and analysed in duplicate by 5 μL HPLC injections. The peak area for the test compound was recorded following manual integration of the corresponding UV trace. • The test solution was heated to 60° C., with stirring, and 50 μL aliquots removed for HPLC analysis at 5 and 24 h timepoints.

The next series relates to non-mutant kinases. Put plainly: KinomeScan selectivity scores. To be noted: for number of individual kinase hits, S(1): % Ctrl <1; for number of individual kinase hits, S(10): % Ctrl <10; for number of individual kinase hits, S(35): % Ctrl <35. Type of series: binding. How it is done: Kinase enzyme binding activities of compounds disclosed herein may be determined using a proprietary assay which measures active site-directed competition binding to an immobilized ligand (Fabian, M. A. et al., Nature Biotechnol., 2005, 23:329-336). These assays may be conducted by DiscoverX (formerly Ambit; San Diego, Calif.). The percentage inhibition produced by incubation with a test compound may be calculated relative to the non-inhibited control.

A further series relates to d-U937 cells. The experiment in a line: Accumulation of β catenin in d-U937 cells. The conditions noted are these: 1 μg/mL; normalised to Reference compound at 1 μg/mL. The series is classed as cell-based, human. How it is done:
U937 cells, a human monocytic cell line, are differentiated into macrophage-type cells by incubation with PMA (100 ng/mL) for between 48 to 72 hr. The cells are then incubated with either final concentrations of test compound or vehicle for 18 hr. The induction of β-catenin by the test compound is stopped by replacing the media with 4% formaldehyde solution. Endogenous […] is neutralised by incubating with quenching buffer (100 μL, 0.1% sodium azide, 1% H2O2 in PBS with 0.05% Tween-20) for 20 min. The cells are washed with washing buffer (200 μL; PBS containing 0.05% Tween-20) and incubated with blocking solution (200 μL; 5% milk in PBS) for 1 hr, re-washed with washing buffer (200 μL) and then incubated overnight with anti-β-catenin antibody solution (50 μL) in 1% BSA/PBS (BD, Oxford, UK).
After washing with washing buffer (3×200 μL; PBS containing 0.05% Tween-20), cells are incubated with a HRP-conjugated secondary antibody solution (100 μL) in 1% BSA/PBS (Dako, Cambridge, UK) and the resultant signal is determined colourimetrically (OD: 450 nm with a reference wavelength of 655 nm) using TMB substrate (50 μL; R&D Systems, Abingdon, UK). This reaction is stopped by addition of 1N H2SO4 solution (50 μL). Cells are then washed with washing buffer and 2% crystal violet solution (50 μL) is applied for 30 min. After washing with washing buffer (3×200 μL), 1% SDS (100 μL) is added to each well and the plates are shaken lightly for 1 hr prior to measuring the absorbance at 595 nm (Varioskan® Flash, Thermo-Fisher Scientific).
The measured OD450-655 readings are corrected for cell number by dividing the OD450-655 by the OD595 readings.

Chain of CYP3A4 (P08684 whole entry): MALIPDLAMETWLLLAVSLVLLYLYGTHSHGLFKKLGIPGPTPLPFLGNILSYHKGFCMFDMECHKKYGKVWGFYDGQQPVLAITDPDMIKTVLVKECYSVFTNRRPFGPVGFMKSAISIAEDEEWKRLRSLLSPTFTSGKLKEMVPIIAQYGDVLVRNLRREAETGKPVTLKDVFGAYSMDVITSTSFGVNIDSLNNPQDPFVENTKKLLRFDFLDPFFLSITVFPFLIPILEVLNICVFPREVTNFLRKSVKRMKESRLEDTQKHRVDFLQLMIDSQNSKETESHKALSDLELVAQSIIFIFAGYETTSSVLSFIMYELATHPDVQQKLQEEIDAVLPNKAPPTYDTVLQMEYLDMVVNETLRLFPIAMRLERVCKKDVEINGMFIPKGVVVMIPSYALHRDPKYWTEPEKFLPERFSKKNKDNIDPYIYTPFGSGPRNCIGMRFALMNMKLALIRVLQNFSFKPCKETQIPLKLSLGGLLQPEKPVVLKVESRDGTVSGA

For `C#CC(C)(C)c1cc(NC(=O)Nc2ccc(Oc3ccnc(Nc4cc(C)c5[nH]ncc5c4)n3)c3ccccc23)n(-c2ccc(C)cc2)n1` [Ref Cpd A, 1-(4-((2-((7-methyl-1H-indazol-5-yl)amino)pyrimidin-4-yl)oxy)-naphthalen-1-yl)-3-(3-(2-methylbut-3-yn-2-yl)-1-(p-tolyl)-1H-pyrazol-5-yl)urea, reference compound], the pIC50 is less than 5.30 against CYP2C9 (CYP2C9, 0 min preincubation); 5.85 on CYP2C9 (CYP2C9, 30 min preincubation); less than 4.82 against CYP3A4 (CYP3A4, 0 min preincubation); 6.40 on CYP3A4 (CYP3A4, 30 min preincubation). Further, the inhibition at 5 μM at CYP2C9 (CYP2C9, 0 min preincubation) worked out at 31%; at CYP2C9 (CYP2C9, 30 min preincubation), 66%. For the same compound, the inhibition at 15 µM was determined as 41% at CYP3A4 (CYP3A4, 0 min preincubation) and 92% on CYP3A4 (CYP3A4, 30 min preincubation).

Turning to `C#Cc1cc(Nc2nccc(Oc3ccc(NC(=O)Nc4cc(C(C)C)nn4-c4ccc(C)cc4)c4ccccc34)n2)cc(C(=O)NCCN2CCOCC2)c1` [Reference Compound B, 3-ethynyl-5-((4-((4-(3-(3-isopropyl-1-(p-toly)-1H-pyrazol-5-yl)ureido)naphthalen-1-yl)oxy)pyrimidin-2-yl)amino)-N-(2-morpholinoethyl)benzamide, reference compound], the “% Parent Remaining” value in series [1] (0 min) was 100%; in series [1] (60° C., 300 min), 82%; in series [1] (60° C., 1440 min) it was 36%.

Take `COCC(=O)Nc1cc(Oc2ccc(NC(=O)Nc3cc(C(C)(C)C)nn3-c3ccc(C)cc3)c3ccccc23)ccn1` [Reference Compound, N-(4-(4-(3-(3-tert-butyl-1-p-tolyl-1H-pyrazol-5-yl)ureido)naphthalen-1-yloxy)pyridin-2-yl)-2-methoxyacetamide, reference compound]: in the series with non-mutant kinases (50 nM), the “number of individual kinase hits, S(1)” value was found to be 7; the “number of individual kinase hits, S(10)” value came to 32; the “number of individual kinase hits, S(35)” value is 67. In the series on non-mutant kinases (500 nM), the “number of individual kinase hits, S(1)” value came out at 45; the “number of individual kinase hits, S(10)” value is given as 105; the “number of individual kinase hits, S(35)” value was 143. Also, the “% β-catenin induction” value with d-U937 cells is 100%.
